The source of these data is patent US20240002430A1, “METHOD FOR PRODUCING PROTEIN COMPOSITIONS” (HOFFMAN-LA ROCHE INC., priority 2020, published 2024).

For series [1] the following is noted: general statement in the description, no test described; cited from earlier work.
For the next series, the target named is T1, lipase CalB2 (Moesziomyces antarcticus, UniProt P41365).
T1 sequence (P41365 26-342): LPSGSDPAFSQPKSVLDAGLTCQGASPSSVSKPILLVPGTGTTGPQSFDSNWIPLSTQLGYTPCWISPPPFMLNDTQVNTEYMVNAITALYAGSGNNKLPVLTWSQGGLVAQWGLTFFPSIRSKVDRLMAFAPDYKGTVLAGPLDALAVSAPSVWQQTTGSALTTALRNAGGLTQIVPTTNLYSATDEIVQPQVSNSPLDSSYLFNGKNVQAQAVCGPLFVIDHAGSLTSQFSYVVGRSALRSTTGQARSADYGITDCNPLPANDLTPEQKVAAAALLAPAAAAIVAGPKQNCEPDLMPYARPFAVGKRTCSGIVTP
Put plainly: Targeted LC-MS proteomics of lipase bound to bis-enol-ester functionalized magnetic beads. To be noted: compound C coupled to azide modified polystyrene magnetic beads; CalB2 + Herceptin mixture, over night 40° C.; after extensive washing; vs non-functionalized beads. The class given is binding. The protocol: Test sample: Herceptin (mAb; 0.2 μg/μl in Na-Phosphate-Buffer) as control protein for the LC-MS based proteomics workflow was mixed with the lipase CalB2 (CalB2; […] in Na-Phosphate-Buffer) in a ca. 1:1 (mol/mol) ratio) as target. The above-mentioned samples were addressed with compound C (bis-enol-ester) covalently coupled to 60 μg azide modified magnetic particles (60 μl of a […] aqueous solution were prepared) (Polystyrene based azide beads; CLK-1036-1, Jena-Bioscience) which were made by click reaction and purification (see protocol experiment Example 1 and general procedure described for the Jena-Bioscience click protocol). […]
The targeted LC-MS analysis was performed using Water/Acetonitrile gradients with TFA (0.05% v(v) as buffer. The separation column was a PepSwift Monolithic Capillary Column, 200 μm×5 cm, P/N: 161409. As mass spectrometer, a Thermo LTQ FT system was used. Further experimental design for quantitative analyses followed general experimental targeted LC-MS procedures. The proteins bound to the beads were applied to the LC-MS system by injection of 1 μl of the digested sample on the analytical column. […]

For `CCCCCCCCCCC[C@@H](C[C@@H]1OC(=O)[C@H]1CCCCCC)OC(=O)[C@H](CC(C)C)NC=O` [Orlistat], in series [1], the solubility in water entry was “highly insoluble in water”.

For the molecule `C#CCCCC(=C/OC(=O)CCCCCCCCCCC)/C=C/OC(=O)CCCCCCCCCCC` [bis-enol ester], the “binding of model lipase CalB2 to functionalized beads (LC-MS peptide peak intensities, FIG. 6)” value at lipase CalB2 was “binds to beads functionalized with bis-enol ester even when subjected to extensive washing steps”.
